From PubChem BioAssay AID651563 (Sanford-Burnham Center for Chemical Genomics, 2012)
pIC50: −log10 of the molar value. “And” between values parts separate entries of the source, which are not always exact repeats. Identical values can stand only once. The source made the active and inactive calls.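 Rule for the calls: active = compounds whose IC50 is 20 micromolar or lower, counted as confirmed SKN-1 reporter blockers; inactive = the rest.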

Each molecule was assayed on C. elegans VP596 Pgst-4::GFP/RFP ratio, acrylamide, 24 h (assay: inhibition of acrylamide-induced Pgst-4::GFP reporter, dose response, SKN-1 inhibitor project, whole organism, GFP/RFP fluorescence ratio, set 2, strain VP596 (AID 651563);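 note: red signal is driven by the dop-3 promoter and serves as the normalizer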).

SMILES | IC50 | pIC50
O=C(/C=C/Nc1ccc(F)cc1F)c1ccco1 | 22.7 µM (inactive) | –
O=c1c2ccccc2ccc2ccccc12 | 33.8 µM (inactive) | –
Clc1ccccc1-c1nnc(-c2ccccc2Cl)o1 | – | 5.75
O=C(Nc1ccc(CN2CCOCC2)cc1)c1cc2ccccc2o1 | – | 4.76
Cc1ccc(CSc2nnc(-c3ccco3)o2)cc1 | 23.8 µM (inactive) | –
CC(=O)NS(=O)(=O)c1ccc(Nc2ccc([N+](=O)[O-])c3nonc23)cc1 | 57.9 µM (inactive) | –
O=[N+]([O-])c1ccc(COc2ccc(CN3CCCCC3)cc2)cc1 | – | 5.05
Clc1ccccc1-c1nc(-c2ccncc2)no1 | 18.4 µM and > 100 µM (inactive) | –
Nc1ccc2c(Cl)cc(Cl)cc2c1 | 28.5 µM (inactive) | –
Cc1ccc2nc(-c3ccc(NC(=S)NC4CC(C)(C)NC(C)(C)C4)cc3)sc2c1 | – | 4.80
O=[N+]([O-])c1cccc(-c2c(-c3ccccc3)ncc3cc(F)ccc23)c1 | > 100 µM (inactive) | –
O=[N+]([O-])c1ccc(Nc2ccccc2)c2nonc12 | 49.6 µM (inactive) | –
C(=C\c1nc(-c2ccncc2)no1)/c1ccccc1 | – | 4.72
CCOC(=O)c1c(-c2ccc(-c3ccccc3)cc2)csc1NC(=O)CNCCN(C)C | – | 4.96
O=C(Nc1ccc(-c2nnc(-c3ccccc3)o2)cc1)c1ccc(Br)o1 | > 100 µM (inactive) | –
Cc1ccccc1-c1noc(-c2cccs2)n1 | – | 5.03
Clc1ccc(-c2nnc(-c3ccccc3)o2)cn1 | > 100 µM (inactive) | –
c1ccc(-n2nnc(-c3nccs3)n2)cc1 | > 100 µM (inactive) | –
Clc1ccc(-c2nc(-c3ccncc3)no2)c(Cl)c1 | > 100 µM (inactive) | –
O=C(/C(C=Nc1ccc(Br)cc1)=C(/O)c1ccco1)C(F)(F)F | 21 µM (inactive) | –
c1ccc2sc(SCc3ccc(-c4nnco4)cc3)nc2c1 | – | 4.92
Cc1cc(OCc2cccc(Cl)c2)c(C)cc1CN1CCOCC1 | – | 4.82
Cc1ccc(-c2noc(-c3cccs3)n2)cc1 | – | 4.91
CN(C)C(CNC(=O)CCc1nc2cc(Cl)ccc2n(Cc2ccccc2)c1=O)c1ccccc1 (centres undefined) | 26.1 µM (inactive) | –
O=[N+]([O-])c1ccc(OCc2cnc(Cl)s2)cc1 | – | 4.86

SMILES | IC50 | pIC50
c1ccc(-c2csc(-c3cccnc3)n2)cc1 | > 100 µM (inactive) | –
Fc1ccc(-n2nnc(-c3cccnc3Cl)n2)cc1 | – | 5.05
c1ccc2oc(SCc3nc4ccccc4s3)nc2c1 | 27.4 µM (inactive) | –
CC1=NN(c2ccccc2)C(=O)/C1=C\C=C1/N(C)c2ccccc2C1(C)C | – | 4.84
Cc1ccc(-c2nc(-c3ccncc3)no2)c(C)c1 | > 100 µM (inactive) | –
Cc1nc2ccccc2cc1OCc1ccc(F)cc1 | 24 µM (inactive) | –
CCN(CC)c1ccc(/C=C2/C(=O)c3ccc(C(=O)O)cc3C2=O)cc1 | – | 4.92
CCc1ccc(C(=O)Nc2ccc3nc(C)ccc3c2)cc1 | – | 4.85
C=CCSc1ncc(-c2ccccc2)cn1 | 27.2 µM (inactive) | –
O=[N+]([O-])c1ccc2nc(-c3ccccc3)oc2c1 | – | 5.42
Cc1ccc(C=Cc2ccccn2)cc1 | > 100 µM (inactive) | –
Clc1ccc(N2CCN(c3ccnc(Cl)n3)CC2)cc1 | – | 4.75
Fc1ccc(-n2nnc(-c3nccs3)n2)cc1 | 24.4 µM (inactive) | –
Clc1ccc(C=Cc2ccccn2)cc1 | – | 4.98
Brc1ccc(-c2nnc(-c3ccco3)o2)cc1 | – | 4.97
c1ccc(SCc2cc(-c3ccccc3)no2)cc1 | – | 4.89
O=C(Oc1ccccc1)N1CCN(c2ccc(F)cc2)CC1 | > 100 µM (inactive) | –
Cc1cc(-c2nc3cc(F)ccc3s2)ccc1N | – | 4.74
COc1ccc(C(=O)Nc2nc(-c3cccs3)cs2)cc1 | 24.6 µM (inactive) | –
O=[N+]([O-])c1ccc(Nc2ccccc2)cc1 | – | 4.91
CCCn1nc2cc(C(=O)NCc3ccc(OC(F)(F)F)cc3)ccc2c1OCC | 25.4 µM (inactive) | –
CCCCCNC(=O)c1ccccc1SC | 81.5 µM (inactive) | –
Fc1ccccc1OCCSc1nc2ccccc2o1 | 60.7 µM (inactive) | –
CC1=NOC(=O)/C1=C/c1ccc(-c2ccc(Cl)cc2)o1 | > 100 µM (inactive) | –
COC(=O)c1cccc(CC2(C)C(=O)Nc3ccc(OC(F)(F)F)cc32)c1 (centres undefined) | > 100 µM (inactive) | –

SMILES | IC50 | pIC50
O=C(/C=C/Nc1ccccc1F)c1cccs1 | 27.9 µM (inactive) | –
O=C(Nc1nc(-c2ccccc2)cs1)c1cccs1 | 21.9 µM (inactive) | –
Brc1ccc(CSc2nnc(-c3ccco3)o2)cc1 | – | 5.14
Cc1c(N2C(=O)/C(=C\c3ccc(N(C)C)cc3)N(C)C2=S)c(=O)n(-c2ccccc2)n1C | – | 4.77
O=C1c2cc(Br)ccc2OC2C=CC=CC12 (centres undefined) | > 100 µM (inactive) | –
CCCCCCCCNc1ncnc2ccccc12 | > 100 µM (inactive) | –
CSc1cccc(NC(=O)c2cccc3cccnc23)c1 | – | 4.90
O=C(Nc1ccc(OC(F)F)c(Cl)c1)c1ccccn1 | – | 5.29
O=C(/C=C/Nc1ccc(F)c(F)c1)c1cccs1 | – | 4.94
CCOc1ccc(-c2nc(-c3cccnc3)no2)cc1 | – | 4.72
O=C1NC2C(=CC(O)C(O)C2O)c2cc3c(cc21)OCO3 (centres undefined) | > 100 µM (inactive) | –
CCCCOc1ccc(C(=O)OC2CC(C)N(C)CC2C)cc1 (centres undefined) | 29.2 µM (inactive) | –
CCOc1cc(CNC2CCCC2)cc(Cl)c1OCc1ccc(F)cc1 | – | 5.55
CC(C)c1ccc(-c2nc3ccccc3s2)cc1 | > 100 µM (inactive) | –
Fc1ccc(-n2nnc(-c3cccnc3)n2)cc1 | 24.8 µM (inactive) | –
O=C(c1cccs1)c1ccc(-c2cccs2)s1 | – | 5.04
Clc1cccc(CSc2ncn(-c3ccccc3)n2)c1 | 37.5 µM (inactive) | –
CC1(C)c2ccccc2C(=O)c2ccccc21 | > 100 µM (inactive) | –
COc1cc(CNC(C)c2ccccc2)cc(Br)c1OCc1ccc(F)cc1 (centres undefined) | – | 5.04
O=C(Nc1nccs1)c1ccc2ccccc2c1 | 23.8 µM (inactive) | –
O=C(/C=C/c1ccccc1)Nc1ccc(CN2CCOCC2)cc1 | – | 4.71
Fc1ccc(-c2nc3ccc(Cl)cn3c2Cc2ccsc2)cc1 | > 100 µM (inactive) | –
Fc1ccc(CSc2ncnc3ccccc23)cc1 | 24.2 µM (inactive) | –
O=C(Nc1ccc(Cl)c(C(F)(F)F)c1)c1ccco1 | 64.4 µM (inactive) | –
O=[N+]([O-])c1ccc2cn(-c3ccccc3)nc2c1 | – | 5.55

SMILES | IC50 | pIC50
Cn1c(=O)c2c(-c3ccccc3)n(-c3ccc(N)cc3)cc2n(C)c1=O | 23.5 µM (inactive) | –
C(=C\c1nnc(-c2cccs2)o1)/c1ccccc1 | – | 4.80
CC(C)(C)N=C1NN=C(c2ccc(Cl)cc2)CS1 | 25.9 µM (inactive) | –
O=C(Nc1ccc(OC(F)F)c(Cl)c1)c1cccc(OC(F)F)c1 | > 100 µM (inactive) | –
c1ccc(Nc2nc(-c3cccs3)cs2)nc1 | 21.7 µM (inactive) | –
Clc1ccc(-c2cc(CSc3ccccc3)on2)cc1 | > 100 µM (inactive) | –
O=C(/C=C/Nc1ccc(F)c(Cl)c1)c1ccco1 | – | 4.78
O=C1/C(=C/c2cccs2)CCc2ccccc21 | 34.3 µM (inactive) | –
Clc1ccc(-c2nnc(SCc3ccon3)o2)c(Cl)c1 | > 100 µM (inactive) | –
O=C(Nc1nc(SCc2ccc(F)cc2)ns1)c1ccco1 | > 100 µM (inactive) | –
O=C(Nc1nc(-c2ccc(Cl)s2)cs1)c1ccccc1 | – | 4.88
Brc1cccc(OCCSc2ncccn2)c1 | > 100 µM (inactive) | –
c1ccc(-c2nc(-c3ccncc3)no2)cc1 | 24.7 µM (inactive) | –
Brc1ccc2oc(-c3ccn[nH]3)cc2c1 | – | 4.99
CCCCOC(=O)Nc1ccc(C(C)C)cc1 | 76.2 µM (inactive) | –
Fc1ccc(COc2ccc(-c3nnco3)cc2)c(Cl)c1 | – | 5.19
N=C1C=CC(=C(c2ccc(N)cc2)c2ccc(N)cc2)C=C1 | 20.2 µM (inactive) | –
CCSc1nnc(-c2ccc(Cl)cc2Cl)o1 | 58.5 µM (inactive) | –
Fc1ccc(OCc2nc(-c3cccs3)no2)cc1 | 31.5 µM (inactive) | –
CCOc1cc(CNCCSc2nnnn2C)cc(Br)c1OCc1ccc(F)cc1 | – | 5.56
Brc1ccc2nc(N3CCCC3)sc2c1 | 25.8 µM (inactive) | –
O=C(/C=C/c1ccc(Cl)cc1)Nc1ccc(CN2CCOCC2)cc1 | 23.3 µM (inactive) | –
CC(C)c1ccc(C(=O)Nc2ccc(CN3CCOCC3)cc2)cc1 | – | 5.32
Clc1ccc(-n2nnc(-c3cccnc3)n2)cc1Cl | > 100 µM (inactive) | –
